Structures are written as SMILES. Active and inactive are the calls of the source. The calls are words filed in the database; no cut-off is given here.

We go through two compounds from ChEMBL document CHEMBL1133868, “Synthesis of P(1)-Citronellyl-P(2)-alpha-D-pyranosyl pyrophosphates as potential substrates for the E. coli undecaprenyl-pyrophosphoryl-N-acetylglucoseaminyl transferase MurG” (Bioorg Med Chem Lett, 2001).

The experiment has as its system Bacillus subtilis. The experiment in a line: Tested for antimicrobial activity against Bacillus Subtilis; Not active. Format: functional, organism-based.

On to `CC(C)=CCC[C@@H](C)CCOP(=O)(O)OP(=O)(O)O[C@H]1O[C@@H](CO)[C@@H](O)[C@H](O)[C@@H]1O`, for which the outcome was inactive. Consider `CC(=O)NC1C(OP(=O)(O)OP(=O)(O)OCC[C@H](C)CCC=C(C)C)OC(CO)C(O)C1O[C@H](C)C(=O)O` (some centres not stated), for which the outcome was inactive.
